According to patent publication US9108963B2, “Pyrazolopyridine, pyrazolopyrazine, pyrazolopyrimidine, pyrazolothiophene and pyrazolothiazole compounds as MGLUR4 allosteric potentiators, compositions, and methods of treating neurological dysfunction” (Vanderbilt University, priority 2010, dated 2015):
Where two headings read alike, the source gives them in different places.

Experiments:
[1] = biological target: mGluR4 (UniProt Q14833); assay: mGluR4 potentiation assay (Ca2+ or thallium flux fluorescence, agonist EC20); format: cell-based, human or rat
Experimental: The disclosed compounds and compositions can be evaluated for their ability to act as a potentiator of metabotropic glutamate receptor activity, in particular mGluR4 activity, by any suitable known methodology known in the art. For example, Chinese Hamster Ovary (CHO) cells transfected with human mGluR4 or HEK cells co-transfected with rat mGluR4 and the G-protein regulated Inwardly Rectifying Potassium channel (GIRK) were plated in clear bottom assay plates for assay in a Hamamatsu FDSS Fluorometric Plate Reader. The cells were loaded with either a Ca2+-sensitive fluorescent dye or the thallium responsive dye and the plates were washed and placed into a suitable kinetic plate reader. For human mGluR4 assays, a fluorescence baseline was established for 3-5 seconds, the disclosed compounds were then added to the cells, and the response in cells was measured. Approximately two and a half minutes later, a concentration of mGluR4 orthosteric agonist (e.g. glutamate or L-AP4) eliciting approximately 20% (EC20) of the maximal agonist response was added to the cells, and the response was measured. Two minutes later, a concentration of mGluR4 agonist (e.g. glutamate or L-AP4) eliciting 80% (EC80) of the maximal agonist response was added to the cells, and the response was measured. For rat mGluR4/GIRK experiments, a baseline was established for approximately five seconds, disclosed compounds were added, and either an EC20 or EC80 concentration of agonist was added approximately two and one half minutes later.
The above described assay operated in two modes. In the first mode, a range of concentrations of the disclosed compounds are added to cells, followed by a single fixed concentration of agonist. If the compound acts as a potentiator, an EC50 value for potentiation and a maximum extent of potentiation by the compound at this concentration of agonist is determined by non-linear curve fitting. If the compound acts as a noncompetitive antagonist, an IC50 value is determined by non-linear curve fitting. In the second mode, several fixed concentrations of the disclosed compounds are added to various wells on a plate, followed by a range in concentrations of agonist for each concentration of disclosed compound. The EC50 values for the agonist at each concentration of compound are determined by non-linear curve fitting. A decrease in the EC50 value of the agonist with increasing concentrations of the sample compound (a leftward shift of the agonist concentration-response curve) is an indication of the degree of mGluR4 potentiation at a given concentration of the sample compound. A decrease in the maximal response of the agonist with increasing concentrations of the sample compounds, with or without a rightward shift in agonist potency, is an indication of the degree of noncompetitive antagonism at mGluR4. The second mode also indicates whether the sample compounds also affect the maximum response to mGluR4 to agonists.

[2] = biological target: T1, mGluR5 (Rattus norvegicus, UniProt P31424); assay: mGluR5 negative allosteric modulation, decrease in response to non-maximal glutamate in HEK cells; format: cell-based; settings: Table 3; read-out: mGlu5 IC50
T1 construct: expressed in transfected cells; host or cells: human embryonic kidney (HEK) cells
Excerpt: Embodiments of the present invention are also mGluR5 negative allosteric modulators. Accordingly, in one aspect, the invention relates to compounds that are also useful as negative allosteric modulators of the metabotropic glutamate receptor subtype 5 (mGluR5). Negative allosteric modulators are non-competitive antagonists and can include a range of maximal antagonist activity from partial antagonists to inverse agonists. In one aspect, the present invention relates to compounds that allosterically modulate mGluR5 receptor activity, affecting the sensitivity of mGluR5 receptors to agonists without acting as orthosteric agonists themselves. […] The compounds of the invention can be useful in the treatment neurological and psychiatric disorders associated with glutamate dysfunction and other diseases in which metabotropic glutamate receptors are involved, as further described herein. […] In further aspect, the human embryonic kidney cells are transfected with human mGluR5. In yet a further aspect, human embryonic kidney cells are transfected with mGluR5 of a mammal.
In further aspect, the human embryonic kidney cells are transfected with human mGluR5. In yet a further aspect, human embryonic kidney cells are transfected with mGluR5 of a mammal.

[3] = Table 2, potentiation of mGluR4 agonist response, read-out: EC50

T1 sequence (P31424 21-1203): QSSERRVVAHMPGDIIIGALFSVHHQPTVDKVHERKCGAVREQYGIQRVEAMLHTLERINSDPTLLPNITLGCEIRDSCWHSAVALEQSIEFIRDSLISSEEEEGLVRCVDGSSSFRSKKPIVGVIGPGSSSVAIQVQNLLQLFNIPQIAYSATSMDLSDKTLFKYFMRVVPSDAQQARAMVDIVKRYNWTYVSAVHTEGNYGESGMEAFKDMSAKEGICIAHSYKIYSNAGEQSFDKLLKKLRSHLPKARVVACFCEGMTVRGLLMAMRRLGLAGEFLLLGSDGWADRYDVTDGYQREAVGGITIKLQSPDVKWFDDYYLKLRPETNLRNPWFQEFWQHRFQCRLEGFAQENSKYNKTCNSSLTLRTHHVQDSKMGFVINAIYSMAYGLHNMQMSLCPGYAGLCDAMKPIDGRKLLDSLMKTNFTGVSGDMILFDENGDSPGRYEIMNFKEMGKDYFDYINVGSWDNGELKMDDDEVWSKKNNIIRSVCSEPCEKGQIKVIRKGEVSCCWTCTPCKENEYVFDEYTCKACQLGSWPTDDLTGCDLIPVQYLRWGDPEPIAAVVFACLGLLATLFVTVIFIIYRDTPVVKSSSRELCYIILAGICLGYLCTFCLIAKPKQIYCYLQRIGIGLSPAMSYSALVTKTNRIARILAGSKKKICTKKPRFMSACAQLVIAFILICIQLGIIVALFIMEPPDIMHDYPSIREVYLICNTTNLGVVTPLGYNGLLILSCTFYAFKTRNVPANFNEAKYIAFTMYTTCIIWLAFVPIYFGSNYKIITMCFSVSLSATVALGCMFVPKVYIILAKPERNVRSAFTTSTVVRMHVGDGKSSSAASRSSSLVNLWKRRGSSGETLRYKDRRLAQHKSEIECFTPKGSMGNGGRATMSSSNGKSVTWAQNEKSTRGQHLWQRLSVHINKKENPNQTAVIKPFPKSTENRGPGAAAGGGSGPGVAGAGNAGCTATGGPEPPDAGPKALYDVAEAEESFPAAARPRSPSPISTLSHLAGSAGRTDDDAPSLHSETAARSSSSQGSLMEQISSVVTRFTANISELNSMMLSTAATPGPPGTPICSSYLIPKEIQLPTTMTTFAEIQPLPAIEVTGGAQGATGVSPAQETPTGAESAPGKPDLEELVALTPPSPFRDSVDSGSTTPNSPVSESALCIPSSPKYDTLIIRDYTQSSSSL

| EC50 ([1]; Table 3, read-out: mGlu4 EC50) [µM] | IC50 [2] [µM] | EC50 [1, 3] [µM] | SMILES |
| --- | --- | --- | --- |
| 0.0335 | 0.582 | – | Clc1cc(Nc2n[nH]c3cccnc23)ccc1Nc1ccccn1 [Example 114, 2-chloro-N4-(1H-pyrazolo[4,3-b]pyridin-3-yl)-N1-(pyridin-2-yl)benzene-1,4-diamine] |
| – | – | 1.19 | Clc1cc(Nc2n[nH]c3cccnc23)ccc1OCc1ncccn1 [Example 108, N-(3-chloro-4-(pyrimidin-2-ylmethoxy)phenyl)-1H-pyrazolo[4,3-b]pyridin-3-amine] |
| – | – | 0.635 | Fc1cccnc1Oc1ccc(Nc2n[nH]c3cccnc23)cc1Cl [Example 98, N-(3-chloro-4-((3-fluoropyridin-2-yl)oxy)phenyl)-1H-pyrazolo[4,3-b]pyridin-3-amine] |
| 0.235 | – | – | Cc1cc(Nc2n[nH]c3cccnc23)ccc1Nc1ncccn1 [Example 130, 2-methyl-N4-(1H-pyrazolo[4,3-b]pyridin-3-yl)-N1-(pyrimidin-2-yl)benzene-1,4-diamine] |
| – | – | 1.23 | C[C@H](Oc1ccc(Nc2n[nH]c3cccnc23)cc1Cl)c1ccncc1 [Example 110, (S)-N-(3-chloro-4-(1-(pyridin-4-yl)ethoxy)phenyl)-1H-pyrazolo[4,3-b]pyridin-3-amine] |
| 0.0439 | 3.6 | – | Clc1cc(Nc2n[nH]c3cccnc23)ccc1Nc1ncccn1 [Example 118, 2-chloro-N4-(1H-pyrazolo[4,3-b]pyridin-3-yl)-N1-(pyrimidin-2-yl)benzene-1,4-diamine] |
| – | – | 0.265 | Cc1cc(Nc2n[nH]c3cccnc23)ccc1Oc1ncccn1 [Example 113, N-(3-methyl-4-(pyrimidin-2-yloxy)phenyl)-1H-pyrazolo[4,3-b]pyridin-3-amine] |
| – | – | 1.5 | Clc1ccccc1COc1ccc(Nc2n[nH]c3cccnc23)cc1Cl [Example 104] |
| – | – | 0.27 | Clc1cc(Nc2n[nH]c3cccnc23)ccc1OCc1ccncc1 [Example 101, N-(3-chloro-4-(pyridin-4-ylmethoxy)phenyl)-1H-pyrazolo[4,3-b]pyridin-3-amine] |
| – | – | 0.36 | Clc1cc(Nc2n[nH]c3cccnc23)ccc1OCc1nccs1 [Example 103, N-(3-chloro-4-(thiazol-2-ylmethoxy)phenyl)-1H-pyrazolo[4,3-b]pyridin-3-amine] |
| – | – | 0.4 | Clc1cc(Nc2n[nH]c3cccnc23)ccc1OCc1cccnc1 [Example 102, N-(3-chloro-4-(pyridin-3-ylmethoxy)phenyl)-1H-pyrazolo[4,3-b]pyridin-3-amine] |
| – | – | 0.61 | C[C@H](Oc1ccc(Nc2n[nH]c3cccnc23)cc1Cl)c1ccccn1 [Example 107, (S)-N-(3-chloro-4-(1-(pyridin-2-yl)ethoxy)phenyl)-1H-pyrazolo[4,3-b]pyridin-3-amine] |
| – | – | 0.18 | Fc1ccccc1COc1ccc(Nc2n[nH]c3cccnc23)cc1Cl [Example 99] |

More lines, now with the values behind:

| SMILES | EC50 ([1]; Table 3, read-out: mGlu4 EC50) [µM] | IC50 [2] [µM] | EC50 [1, 3] [µM] |
| --- | --- | --- | --- |
| Cc1cccc(Nc2ccc(Nc3n[nH]c4cccnc34)cc2Cl)n1 [Example 120, 2-chloro-N1-(6-methylpyridin-2-yl)-N4-(1H-pyrazolo[4,3-b]pyridin-3-yl)benzene-1,4-diamine] | 0.0315 | 0.55 | – |
| Clc1cc(Nc2n[nH]c3cccnc23)ccc1Nc1cccnc1 [Example 127, 2-chloro-N4-(1H-pyrazolo[4,3-b]pyridin-3-yl)-N1-(pyridin-3-yl)benzene-1,4-diamine] | 0.0531 | 0.022 | – |
| Cc1ccc(Nc2ccc(Nc3n[nH]c4cccnc34)cc2Cl)nc1 [Example 119, 2-chloro-N1-(5-methylpyridin-2-yl)-N4-(1H-pyrazolo[4,3-b]pyridin-3-yl)benzene-1,4-diamine] | 0.0169 | 0.59 | – |
| Clc1cc(Nc2n[nH]c3cccnc23)ccc1OC1CCCc2cccnc21 (centres unmarked) [Example 109, N-(3-chloro-4-((5,6,7,8-tetrahydroquinolin-8-yl)oxy)phenyl)-1H-pyrazolo[4,3-b]pyridin-3-amine] | – | – | 1 |
| Fc1cncc(Oc2ccc(Nc3n[nH]c4cccnc34)cc2Cl)c1 [Example 112, N-(3-chloro-4-((5-fluoropyridin-3-yl)oxy)phenyl)-1H-pyrazolo[4,3-b]pyridin-3-amine] | – | – | 0.611 |
| Clc1cc(Nc2n[nH]c3cccnc23)ccc1Nc1cnc2ccccc2n1 [Example 126, 2-chloro-N4-(1H-pyrazolo[4,3-b]pyridin-3-yl)-N1-(quinoxalin-2-yl)benzene-1,4-diamine] | 0.038 | 3.7 | – |
| Clc1cc(Nc2n[nH]c3cccnc23)ccc1OCC1CCCC1 [Example 105, N-(3-chloro-4-(cyclopentylmethoxy)phenyl)-1H-pyrazolo[4,3-b]pyridin-3-amine] | – | – | 0.4 |
| N#Cc1cncc(Oc2ccc(Nc3n[nH]c4cccnc34)cc2Cl)c1 [Example 111, 5-(4-((1H-pyrazolo[4,3-b]pyridin-3-yl)amino)-2-chlorophenoxy)nicotinonitrile] | – | – | 0.0848 |
| Clc1cccc(Nc2ccc(Nc3n[nH]c4cccnc34)cc2Cl)n1 [Example 116, 2-chloro-N1-(6-chloropyridin-2-yl)-N4-(1H-pyrazolo[4,3-b]pyridin-3-yl)benzene-1,4-diamine] | 0.0825 | 2.43 | – |
| Clc1cc(Nc2n[nH]c3cccnc23)ccc1Nc1nccc2cccnc12 [Example 128, 2-chloro-N1-(1,7-naphthyridin-8-yl)-N4-(1H-pyrazolo[4,3-b]pyridin-3-yl)benzene-1,4-diamine] | 0.455 | – | – |
| Clc1cc(Nc2n[nH]c3cccnc23)ccc1Nc1cc2ccccc2cn1 [Example 115, 2-chloro-N1-(isoquinolin-3-yl)-N4-(1H-pyrazolo[4,3-b]pyridin-3-yl)benzene-1,4-diamine] | 0.0372 | – | – |
| Clc1cc(Nc2n[nH]c3cccnc23)ccc1Nc1cnccn1 [Example 117, 2-chloro-N1-(pyrazin-2-yl)-N4-(1H-pyrazolo[4,3-b]pyridin-3-yl)benzene-1,4-diamine] | 0.0306 | 0.1 | – |
| Clc1cc(Nc2n[nH]c3cccnc23)ccc1Nc1cnc2ccccc2c1 [Example 122, 2-chloro-N4-(1H-pyrazolo[4,3-b]pyridin-3-yl)-N1-(quinolin-3-yl)benzene-1,4-diamine] | 0.162 | – | – |
| FC(F)(F)c1ccnc(Nc2ccc(Nc3n[nH]c4cccnc34)cc2Cl)c1 [Example 121, 2-chloro-N4-(1H-pyrazolo[4,3-b]pyridin-3-yl)-N1-(4-(trifluoromethyl)pyridin-2-yl)benzene-1,4-diamine] | 0.0569 | – | – |
| CC(Oc1ccc(Nc2n[nH]c3cccnc23)cc1Cl)c1ccccc1 (centres unmarked) [Example 100, N-(3-chloro-4-(1-phenylethoxy)phenyl)-1H-pyrazolo[4,3-b]pyridin-3-amine] | – | – | 1.6 |
| FC(F)(F)c1cccnc1Nc1ccc(Nc2n[nH]c3cccnc23)cc1Cl [Example 124, 2-chloro-N4-(1H-pyrazolo[4,3-b]pyridin-3-yl)-N1-(3-(trifluoromethyl)pyridin-2-yl)benzene-1,4-diamine] | 1.56 | 1.54 | – |
| FC(F)(F)c1ccnc(Oc2ccc(Nc3n[nH]c4cccnc34)cc2Cl)c1 [Example 97, N-(3-chloro-4-((4-(trifluoromethyl)pyridin-2-yl)oxy)phenyl)-1H-pyrazolo[4,3-b]pyridin-3-amine] | – | – | 0.497 |
| Clc1cc(Nc2n[nH]c3cccnc23)ccc1Nc1ncc2ccccc2n1 [Example 125, 2-chloro-N4-(1H-pyrazolo[4,3-b]pyridin-3-yl)-N1-(quinazolin-2-yl)benzene-1,4-diamine] | 0.0216 | – | – |
| Clc1cc(Nc2n[nH]c3cccnc23)ccc1OC1CCCCC1 [Example 106, N-(3-chloro-4-(cyclohexyloxy)phenyl)-1H-pyrazolo[4,3-b]pyridin-3-amine] | – | – | 0.47 |
